Data: patent US20140186329A1, “POLYPHENOL ANALOGS TO TREAT ISCHEMIA” (priority 2011, published 2014)
Read-outs that look alike come from different tables or passages of the source.

Experiments:
[1] = system: HT22 cells; assay: In vitro ischemia assay (HT22 cell IAA assay, MTT); assay type: cell-based, mouse
Procedure: Cell viability was determined by a modified version of 3-(4,5-dimethylthiazol-2-yl)-2,5-diphenyl tetrazolium bromide (MTT) assay based on the standard procedure (Maher, et al., Brain Research. (2007), supra). Cells were seeded onto 96-well microtiter plates at a density of 5×10^3 cells per well. For the in vitro ischemia assay, the next day, the medium was replaced with DMEM supplemented with 7.5% DFCS and the cells were treated with 20 μM iodoacetic acid (IAA) alone or in the presence of the different derivatives. After 2 hr the medium in each well was aspirated and replaced with fresh medium without IAA but containing the derivatives. 20 hr later, the medium in each well was aspirated and replaced with fresh medium containing 2.5 μg/ml MTT. After 4 hr of incubation at 37° C., the cells were solubilized with 100 μl of a solution containing 50% dimethylformamide and 20% SDS (pH 4.7). The absorbance at 570 nm was measured on the following day with a microplate reader (Molecular Devices). Results were confirmed by visual inspection of the wells. Controls included compound alone to test for toxicity and compound with no cells to test for interference with the assay chemistry.
For a primary screen, an in vitro ischemia model in combination with the HT22 nerve cell line (Maher, et al., Brain Research. (2007) 1173, 117-125) was chosen. […] To induce ischemia in the HT22 cells we used iodoacetic acid (IAA), a well-known, irreversible inhibitor of the glycolytic enzyme glyceraldehyde 3-phosphate dehydrogenase (G3PDH) (Winkler, et al., Exp. Eye Res. (2003) 76, 715-723). IAA has been used in a number of other studies to induce ischemia in nerve cells (Reshef, et al., Neurosci. Lett. (1997) 238, 37-40; Sperling, et al., Neursci. Lett. (2003) 351, 137-140; Rego, et al., Neurochem. Res. (1999) 24, 351-358; Sigalov, et al., J. Mol. Neurosci. (2000) 15, 147-154; and Reiner, et al., Neurosci. Lett. (1990) 119, 175-178), including several recent screens for neuroprotective molecules (Biraboneye, et al., J. Med. Chem. (2009) 52 (14), 4358-4369; Biraboneye, et al., Chem. Med. Chem. (2010) 5 (1), 79-85). The changes following IAA treatment of neural cells are very similar to those seen in animal models of ischemic stroke (Lipton, et al., Physiol. Rev. (1999) 79, 1431-1568) and include alterations in membrane potential (Reiner, et al., Neurosci. Lett. (1990) 119, 175-178), breakdown of phospholipids (Taylor, et al., J. Pharmacol. Exp. Ther. (1996) 276, 1224-1231), loss of ATP (Winkler, et al., Exp. Eye Res. (2003) 76, 715-723; Sperling, et al., Neursci. Lett. (2003) 351, 137-140) and an increase in reactive oxygen species (ROS) (Taylor, et al., J. Pharmacol. Exp. Ther. (1996), supra; and Sperling, et al., Neursci. Lett. (2003) 351, 137-140).
(§1) Cell viability was determined after 24 hr by the MTT assay. The ability to maintain GSH (GSH) was determined by treating HT22 cells with different doses of each derivative (1-10 μM) in the presence of 5 mM glutamate. After 24 hr cell extracts were prepared and analyzed for total GSH. Fisetin (10 μM) was used as a positive control. The ability to induce PC12 cell differentiation (PC 12 diff' n) was determined by treating PC12 cells in N2 medium with different doses of each derivative (1-10 μM) for 24 hr. Differentiation was assessed by visual inspection with Fisetin (10 μM) as a positive control. Anti-inflammatory activity (microglia) was assessed in N9 microglial cells treated with bacterial lipopolysaccharide alone or in the presence different doses of each derivative (1-10 μM) for 24 hr. Fisetin was used as a positive control. TEAC values, a measure of direct antioxidant activity, were determined using the ABTS decolorization assay.
For rapid screening of chemical libraries, a mouse HT22 hippocampal cell death assay induced by addition of the compound iodoacetic acid (IAA) was used. IAA is a well-known, irreversible inhibitor of the glycolytic enzyme glyceraldehyde 3-phosphate dehydrogenase (G3PDH). […]

[2] = system: HT22 cells; assay: Maintenance of total GSH in the presence of glutamate; assay type: cell-based, mouse; settings: derivative 1-10 μM, 5 mM glutamate, 24 hr
Procedure: Total intracellular glutathione was determined by a chemical assay as described (Maher, P. et al., Free Radical Research. (2006) 40 (10), 1105-1111).
(§2) Three secondary screens allowed assessment of three key activities of Fisetin that are highly relevant to stroke, as well as other neurological disorders: maintenance of glutathione (GSH), the major endogenous cellular antioxidant, inhibition of LPS-induced microglial activation, an indicator of anti-inflammatory activity and PC 12 cell differentiation, a measure of neurotrophic activity. All of these activities are relevant to the nerve cell loss seen in stroke (Gelderblom, et al., Stroke. 2009, 40 (5), 1849-1857; Pandya, et al., Cent. Nerv. Syst. Agents. Med. Chem. (2011) April 27; Lewerenz, et al., J. Neurochem. (2010) 113 (2), 502-504). […] To assess GSH maintenance, total intracellular GSH levels after a 24 hr treatment with the compound both in the absence and presence of glutamate, an inducer of GSH loss and oxidative stress (Tan, et al., Curr. Top. Med. Chem. (2001) 1, 497-506; Maher, et al., Free Radical Research. (2006) 40 (10), 1105-1111) was measured. Inhibition of LPS-induced microglial activation was determined by treating N9 mouse microglial cells with LPS alone and in the presence of the compounds and assaying NO release into the medium 24 hr later (Zheng, et al., Int. Immunopharmacol. (2008) 8, (3), 484-494). PC12 cell differentiation was determined by treating PC12 cells with the compounds and looking at neurite outgrowth after 24 hr. In all cases, Fisetin was used as a positive control (Sagara, et al., J. Neurochem. (2004) 90, 1144-1155).
as §1

[3] = system: PC12 cells; assay: PC12 cell differentiation (neurite outgrowth); assay type: cell-based; settings: N2 medium, derivative 1-10 μM, 24 hr, visual inspection
Procedure: PC 12 cells in N2 medium were treated with the derivatives (1-10 μM) or Fisetin (10 μM) as a positive control for 24 hr at which time the cells were scored for the presence of neurites. PC12 cells produce neurites much more rapidly when treated in N2 medium than when treated in regular growth medium. For each treatment, 100 cells in each of three separate fields were counted. Cells were scored positive if one or more neurites>1 cell body diameter in length were observed.
as §2, §1

[4] = TEAC, ABTS decolorization assay; settings: relative to Trolox
Procedure: TEAC values for the flavonoids were determined as described (Maher, P. et al., Free Radical Research. (2006), supra). Briefly, 250 μl of 2,2′-azinobis(3-ethylbenzothiazoline 6-sulfonate) (ABTS) treated overnight with potassium persulfate and diluted to an OD of ˜0.7 at 734 nm was added to 2.5 μl of a derivative solution in ethanol. The change in absorbance due to the reduction of the ABTS radical cation was measured at 734 nm for 4 min. To calculate the TEAC, the gradient of the plot of the percentage inhibition of absorbance vs. concentration for the derivative in question was divided by the gradient of the plot for Trolox.
as §1

[5] = Mus musculus, HT-22, HT22 cells, 20 μM IAA for 2 hr, viability after 24 hr by MTT, read-out: EC50 in vitro ischemia

Structure (SMILES) | EC50 [1, 5] [nM] | GSH (ability to maintain GSH) [2] | PC12 diff'n (ability to induce PC12 cell differentiation) [3] | TEAC [4] | EC50 in vitro ischemia (μM) ([1]; HT22 cells, 20 μM IAA for 2 hr, viability after 24 hr by MTT) | EC50 ([1]; HT22 cells, 20 μM IAA, read-out: HT22 Cell IAA assay EC50) [nM] | EC50 ([1]; Mus musculus, HT-22, HT22 cells, 20 μM IAA, read-out: HT22 Cell IAA assay EC50) [nM] | Emax ([1]; Mus musculus, HT-22, HT22 Cell IAA assay, read-out: Max Protection) [%]
COc1cc(-c2ccc(N(C)C)cc2)nc2ccccc12 [CMS-109, 4-methoxy-2-(4-dimethylaminophenyl)quinoline] | 60 | no | no | 0.06 | – | – | – | –
COc1ccc(-c2cc(OC)c3ccccc3n2)cc1O [CMS-001, 4-methoxy-2-(3-hydroxy, 4-methoxyphenyl) quinoline] | – | no | no | 0.24 | no | – | – | –
COc1cc(-c2cc(=O)c3cc(C)c(C)cc3o2)ccc1O [CMS-064, 2-(4-hydroxy-3-methoxyphenyl)-6,7-dimethyl-4H-chromen-4-one] | 30 | no | no | 0.12 | – | 34 | < 40 | –
Cc1cc2oc(-c3ccc(N(C)C)cc3)cc(=O)c2cc1C [CMS-119, 2-(4-(dimethylamino)phenyl)-6,7-dimethyl-4H-chromen-4-one] | > 500 | no | no | 0 | – | – | – | –
CC(C)Oc1cc(-c2ccc(N(C)C)cc2)nc2ccccc12 [CMS-112, 4-isopropoxy-2-(4-dimethylaminophenyl)quinoline] | 50 | no | no | 0.15 | – | – | – | –
CCOc1ccc(-c2oc3c(ccc4ccccc43)c(=O)c2O)cc1OCC [CMS-036, 2-(3,4-diethoxyphenyl)-3-hydroxy-4H-benzo[h]chromen-4-one] | 300 | no | no | 0.15 | – | – | – | –
COc1cc(-c2cc(=O)c3cc(C)c(C)cc3o2)ccc1OCc1ccccc1 [CMS-058, 2-(4-(benzyloxy)-3-methoxyphenyl)-6,7-dimethyl-4H-chromen-4-one] | 500 | no | no | 0.09 | – | – | – | –
COc1ccc(-c2oc3cc(C)c(C)cc3c(=O)c2O)cc1O [CMS-092, 3-hydroxy-2-(3-hydroxy-4-methoxyphenyl)-6,7-dimethyl-4H-chromen-4-one] | 20 | no | no | 1.74 | – | – | – | 90
Cc1cc2oc(-c3ccc(O)c(O)c3)c(O)c(=O)c2cc1C [CMS-027, 2-(3,4-dihydroxyphenyl)-3-hydroxy-6,7-dimethyl-4H-chromen-4-one] | 500 | no | no | 1.89 | – | – | – | –
O=c1c(O)c(-c2ccc(O)c(O)c2)oc2ccc3ccccc3c12 [CMS-041, 3-(3,4-dihydroxyphenyl)-2-hydroxy-1H-benzo[h]chromen-1-one] | 250 | no | yes | 1.26 | – | – | – | –
Cc1cc2oc(-c3ccc(N4CCCC4)cc3)cc(=O)c2cc1C [CMS-116, 6,7-dimethyl-2-(4-(pyrrolidin-1-yl)phenyl)-4H-chromen-4-one] | > 500 | no | no | 0.12 | – | – | – | –
Cc1cc2oc(-c3ccc(O)cc3O)cc(=O)c2cc1C [CMS-094, 2-(2,4-dihydroxyphenyl)-6,7-dimethyl-4H-chromen-4-one] | > 500 | no | no | 0.15 | – | – | – | –
CCOc1ccc(-c2oc3cc(C)c(C)cc3c(=O)c2O)cc1OCC [CMS-025, 2-(3,4-diethoxyphenyl)-3-hydroxy-6,7-dimethyl-4H-chromen-4-one] | 500 | no | no | 0.84 | – | – | – | –
